# Patent US12145920B2, “Lanthionine c-like protein 2 ligands, cells prepared therewith, and therapies using same” (NImmune Biopharma, Inc., priority 2019, dated 2024)
# Columns and labels:
# CD4+ T cells = assay: Immune effects in CD4+ splenocytes, flow cytometry (wild type); type: cell-based, C57BL/6 mice; conditions: 0.1 micromolar, 48 h, vs vehicle, FIG. 4B
# Text: Cell culture. Spleens were excised from C57BL/6 mice and assessed in wild-type and LANCL2 deficient states. Spleens were crushed between the frosted ends of microscope slides and filtered to provide a cellular suspension. Red blood cells were lysed through hypotonic lysis. Remaining cells were washed and filtered. CD4+ T cells were enriched within the suspension using magnetic sorting based negative selection. Cells were collected and plated within 96 well plates coated with anti-CD3 and cultured in the presence of BT-63 at 0, 0.1, 1 and 10 micromolar or BT-104A, BT-104B, or BT-104C at 0.1 micromolar for 48 h. During the last 6 h of culture, cells were stimulated with phorbol 12-myristate-13-acetate (PMA) and ionomycin.
# Immunological analysis. Cells were collected from 96 well plates and stained with a cocktail of antibodies for immunophenotyping by flow cytometry. Culture supernatant was collected and assayed for cytokine concentrations by cytometric bead array. Data was captured on a BD FACS Celesta and analyzed using FacsDiva.
# [1] = system: C57B1/6 mice immunized with chicken collagen; assay: Collagen induced model of arthritis; type: in vivo; conditions: spleens, 4 weeks daily oral 20 mg/kg vs vehicle
# Experimental: Models. Six-week-old C57B1/6 mice were immunized with 200 μg of chicken collagen emulsified in complete Freund's adjuvant by intradermal injections at the base of the tail. Mice were treated with 20 mg/kg of BT-104-B or vehicle, daily for four weeks.
# Immunological analysis. Spleens were excised from mice. Tissues were crushed and filtered to provide a cellular suspension. Red blood cells were lysed. Cells were labeled with mixtures of extracellular (CD45, CD3, CD4, CD8, CD11b, CD11c) and intracellular (IFNγ, IL17, TNF) antibodies in a sequential live staining in 96-well plates in preparation for flow cytometry. Data was captured on a BD FACS Celesta and analyzed using FACSDiva.
# [2] = system: C57BL/6 mice with CCl4-induced steatohepatitis; assay: CCl4 model of nonalcoholic steatohepatitis; type: in vivo; conditions: oral 20 mg/kg, after 2 weeks of treatment
# Experimental: WD-induced model. C57BL/6 mice were administered bi-weekly intraperitoneal injections of 0.5 μL/g CCl4 to induce steatohepatitis for 4 weeks. Mice were treated daily, in a therapeutic manner after 2 weeks of injections. Treatment with BT-104-B (20 mg/kg) or vehicle control occurred by oral gavage. Dosage was calculated based off mean body weights.
# Analysis. Livers were excised and weighed. Sections of livers were excised and stored in buffered formalin for Sirius red staining or snap frozen for assessment of fibrosis. Severity of fibrosis was assessed by scoring of Sirius red stained liver by microscopic examination.
# NZB/W F1 mice = assay: NZB/W F1 genetic mouse model of SLE (BT-104-B); type: in vivo; conditions: spleens, 12 weeks daily oral 20 mg/kg vs vehicle
# Experimental: NZB/W F1 model. Twenty-four-week-old, female NZB/W F1 mice were randomized into vehicle or BT-104-B treated arms based on baseline urine protein levels. BT-104-B was administered daily at 20 mg/kg for 12 weeks. Mice were weighed on a weekly basis to update dosage formulation. Dosage was calculated based off mean body weights.
# Immunological analysis. Spleens were excised, crushed and filtered to provide a cellular suspension. Red blood cells were lysed. Cells were labeled with mixtures of extracellular (CD45, CD3, CD4, CD8, CD25) and intracellular (IL21, IL17, FOXP3) antibodies in a sequential live staining in 96-well plates in preparation for flow cytometry. Data was captured on a BD FACS Celesta and analyzed using FACSDiva.
# [3] = mice, oral dose of 10 mg/kg, comparison value; cited from earlier work
structure (smiles),measurement,setting,value
CC(C)(C(=O)c1ccccc1)N1CCN(C(=O)c2cccc(-c3nc4ccccc4[nH]3)n2)CC1 [BT-104-A],TNFa+ CD4+ T cells,CD4+ T cells,significantly decreasing
same,proportions of IFNγ+ CD4+ T cells,CD4+ T cells,significantly decrease
"O=C(CN1C(=O)CN(C(=O)c2cccc(-c3nc4ccccc4[nH]3)n2)CC1=O)c1ccccc1 [BT-104-B, 4-(6-(1H-benzo[d]imidazol-2-yl)picolinoyl)-1-(2-oxo-2-phenylethyl)piperazine-2,6-dione]",proportion of IFNγ+ CD4+ T cells,[1],significantly reduced
same,proportion of IL-17+ CD4+ T cells,[1],significantly reduced
same,proportion of TNF+ CD11b+ CD11c+ myeloid cells,[1],significantly reduced
same,fibrotic scoring,[2]; Sirius red,reduced
same,liver weights,[2],reduced
same,TNFa+ CD4+ T cells,CD4+ T cells,significantly decreasing
same,proportions of IFNγ+ CD4+ T cells,CD4+ T cells,significantly decrease
same,proportion of CD25+ FOXP3+ CD4+ T cells,NZB/W F1 mice,significantly increasing
same,proportion of IL21+ CD4+ T cells,NZB/W F1 mice,significantly reduced
same,proportion of IL-17+ CD4+ T cells,NZB/W F1 mice,significantly reduced
"O=C(c1cccc(-c2nc3ccccc3[nH]2)n1)N1CCN(C(=O)c2cccc(-c3nc4ccccc4[nH]3)n2)CC1 [BT-11, N,N-Bis(benzimidazolylpicolinoyl)piperazine]",maximum plasma concentration,[3],4.9 ng/mL
